From patent US20050233377A1, “Drug screening method for the treatment of brain damage” (priority 2004, published 2005) come the findings set out here.

SMILES strings stand for the structures.

Data set [1] is classed as physicochemical. The source says: Both compounds were therefore dissolved in DMSO for the NMR titration experiments.
The target of data set [2] is T1, PDZ2 of PSD-95 (Rattus norvegicus, UniProt P31016).
T1 construct: His tag (N); made in house; host or cells: Escherichia coli BL21 (DE3), pET14b
The experiment in a line: NMR chemical shift perturbation assay (1H-15N HSQC) of binding to 15N-labeled PDZ2. The note with it: for structural perturbation of PDZ2 (chemical shift of amide groups of Ser 173 and Ala 231 normalized to maximal shift with crude extract = 100%): 10-fold excess of compound relative to PDZ2. The method, then:
In this specific non-limiting example, the PDZ-domain of recombinant PSD-95 was uniformly labeled with ^15N using the recombinant protein production method described. The ^15N-labeled PSD-95 was expressed in and purified from E. coli bacterial cells. The NMR spectra was acquired at 30° C. on Varian Inova 500 or 750 spectrometers each equipped with a 5 mm z-shielded gradient triple resonance probes. Lyophilized ^15N-labeled PDZ2 protein dissolved in 100 mM potassium phosphate buffer at pH 6.0, with a pure recombinant protein concentration of ˜0.1-0.2 mM (typically 0.5 ml in 100 mM phosphate buffer) for spectral analysis.
Since the identity of every resonances of the ^1H-^15N HSQC spectrum of PSD-95 PDZ domains is known, and the three dimensional structures of the PSD-95 PDZ domains could be elucidated, the quantitative values of compound-induced chemical shift changes for each amino acid residues of PSD-95 PDZ2 were computed using the equation: Δppm=[(ΔδHN)^2+(ΔδN·αN)^2]^1/2
The scaling factor αN used to normalize ^1H and ^15N chemical shifts was 0.17. ΔδHN corresponded to the change of the ^15N-bonded hydrogen chemical shift of a specific resonance, while ΔδN corresponded to the change of the ^15N chemical shift of that resonance.
In this method, the PDZ domain of PSD-95 is expressed recombinantly as described in Example 1 and uniformly labeled with ^15N using a recombinant protein production method. […]
Using preparation techniques mentioned above, a ^1H,^15N HSQC spectrum was recorded for each mixture of bound PDZ2 protein, and compared with the ^1H,^15N HSQC spectrum of free PSD-95 PDZ2 (˜0.1 mM in the same buffer). […]
The observation of chemical shift changes (with respect to the free PDZ2) as a result of mixing the protein with the herbal mixtures or pure compounds was scored as positive binding of compound(s) to PDS-95 PDZ2. […]
The binding affinity of the compounds to PDZ2 of PSD-95 was quantified by normalizing the chemical shift of the amide groups of Ser 173 and Ala 231 in relation to the maximal shift of these groups upon incubation with the crude extract (100%). […]

T1 sequence (P31016 156-249): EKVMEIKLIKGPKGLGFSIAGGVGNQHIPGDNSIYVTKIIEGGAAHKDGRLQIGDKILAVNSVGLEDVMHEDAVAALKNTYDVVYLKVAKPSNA

As for `O=C(O)[C@H]1O[C@@H](Oc2cc3oc(-c4ccccc4)cc(=O)c3c(O)c2O)[C@H](O)[C@@H](O)[C@@H]1O` [baicalin], the “solubility in H2O” value in data set [1] is reported as “very poor solubility”. Further, the “structural perturbation of PDZ2 (chemical shift of amide groups of Ser 173 and Ala 231 normalized to maximal shift with crude extract = 100%)” value in data set [2] is recorded as “around 60%”. Besides, in data set [2] (15N-labeled PDZ2 0.1-0.2 mM, 100 mM phosphate buffer pH 6.0), the “chemical shift changes of PSD-95 PDZ2 HSQC spectrum relative to free PDZ2 (scored as positive binding)” value is reported as “significant chemical shift changes”.

On to `COc1c(O[C@@H]2O[C@H](C(=O)O)[C@@H](O)[C@H](O)[C@H]2O)cc(O)c2c(=O)cc(-c3ccccc3)oc12` [wogonoside], for which the “solubility in H2O” value in data set [1] was “very poor solubility”.

With `O=C(O)[C@H]1O[C@@H](Oc2cc(O)c3c(=O)cc(-c4ccccc4)oc3c2O)[C@H](O)[C@@H](O)[C@@H]1O` [norwogonoside], the “structural perturbation of PDZ2 (chemical shift of amide groups of Ser 173 and Ala 231 normalized to maximal shift with crude extract = 100%)” value in data set [2] was “around 60%”.
